Test results published in BindingDB's records for doi:10.1074/jbc.M110.109017 (The University of Kansas, 2010).

Molecular target: Cytochrome P450 2E1 (Homo sapiens, UniProt P05181)
Assay: Binding Assay
Excerpt: Binding assay using CYP2E1.

Cytochrome P450 2E1, sequence (P05181 whole entry): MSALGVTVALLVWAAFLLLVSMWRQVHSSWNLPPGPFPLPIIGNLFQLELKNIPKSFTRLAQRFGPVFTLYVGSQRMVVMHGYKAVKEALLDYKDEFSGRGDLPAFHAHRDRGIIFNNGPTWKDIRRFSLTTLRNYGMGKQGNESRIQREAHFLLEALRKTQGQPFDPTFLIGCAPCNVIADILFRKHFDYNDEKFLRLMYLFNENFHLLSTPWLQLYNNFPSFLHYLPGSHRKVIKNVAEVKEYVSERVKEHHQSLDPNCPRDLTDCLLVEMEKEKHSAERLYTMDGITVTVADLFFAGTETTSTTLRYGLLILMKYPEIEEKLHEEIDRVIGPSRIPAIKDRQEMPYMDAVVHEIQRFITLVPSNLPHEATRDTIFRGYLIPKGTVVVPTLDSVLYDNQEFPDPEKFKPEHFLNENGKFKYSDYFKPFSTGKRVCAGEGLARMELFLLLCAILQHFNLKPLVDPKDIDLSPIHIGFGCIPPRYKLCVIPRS

Point of comparison: `O=C(O)CCCCCCCCCn1ccnc1` [Omega-imidazolyl decanoic acid], Kd 9 µM. Against it:
- O=C(O)CCCCCCCCCCCn1ccnc1 [Omega-imidazolyl dodecanoic acid] — 5-fold lower, 1.8 µM
- O=C(O)CCCCCCCn1ccnc1 — 2.3-fold higher, 21 µM
